Laboratory results published in US20080057140A1, “Use of a Lignan for the Manufacture of a Composition for Preventing or Alleviating of Symptoms Relating to Estrogen Deficiency” (priority 2005, published 2008).

Legend:
[1] = disclosed in WO 00/59946; cited from earlier work
[2] = plasma enterolactone after 7-hydroxymatairesinol capsules in human subjects; assay type: in vivo; settings: healthy male volunteers, capsules 315 mg/day (3 x 105 mg), 29 days, FIG. 2
Experimental: The data for experimental days 1 and 29 is shown. On the x-axis, the time (hrs) after the first 105 mg dose is shown. The arrows denote the administration of the three 105 mg HMRlignan™ (hydroxymatairesinol) doses during the test days 1 and 29. N=6.
In brief, healthy male volunteers ingested capsule preparation of 7-hydroxymatairesinol, at total daily dose of 315 mg, divided in three 105 mg portion for morning, afternoon and evening dose. The subjects ingested the product continuously for 29 days. […] The levels were measured with a high-performance liquid chromatography coupled with tandem mass spectrometer system (Applied Biosystems Inc.).

In the case of `COc1cc(C[C@H]2C(=O)OC[C@@H]2[C@H](O)c2ccc(O)c(OC)c2)ccc1O` [7-hydroxymatairesinol], the “conversion to enterolactone in vivo” value [1] is listed as “efficiently converted to enterolactone” and the circulating enterolactone concentration [2] is listed as “sustained increase”.
